Laboratory results from PubChem BioAssay AID248 (DTP/NCI, 2004).
“And” between values parts separate entries of the source, which are not always exact repeats. Equal entries are not always repeated. Toxic doses and inconclusive results are not listed. No stated cut-off is given here; in the data, active means T/C of 150% or more; inactive means T/C below 125%.

Tested on: L1210 leukemia ip in BDF1 mice, survival T/C
Assay: NCI In Vivo Anticancer Drug Screen. Data for tumor model L1210 Leukemia (intraperitoneal) in B6D2F1 (BDF1) mice
Conditions: endpoint: mean survival time, higher = longer survival
In short: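 Tumor was transplanted into mice, which were then dosed with test compound or vehicle alone. Survival was recorded for each group, and the treated figure was expressed relative to the control figure.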

[1] = dose: 100.0 mg/kg/injection, schedule: Q01DX009 (ip), vehicle: saline with Tween-80
[2] = dose: 200.0 mg/kg/injection, schedule: Q01DX009 (ip), vehicle: saline with Tween-80
[3] = dose: 100.0 mg/kg/injection, schedule: Q04DX003 (ip), vehicle: saline with Tween-80
[4] = dose: 200.0 mg/kg/injection, schedule: Q04DX003 (ip), vehicle: saline with Tween-80
[5] = dose: 100.0 mg/kg/injection, schedule: Q04DX002 (ip), vehicle: Klucel (hydroxypropylcellulose) (HPC)
[6] = dose: 200.0 mg/kg/injection, schedule: Q04DX002 (ip), vehicle: Klucel (hydroxypropylcellulose) (HPC)
[7] = dose: 400.0 mg/kg/injection, schedule: Q04DX002 (ip), vehicle: Klucel (hydroxypropylcellulose) (HPC)
[8] = dose: 400.0 mg/kg/injection, schedule: Q01DX009 (ip), vehicle: saline with Tween-80
[9] = dose: 100.0 mg/kg/injection, schedule: Q01DX009 (ip), vehicle: Klucel (hydroxypropylcellulose) (HPC)
[10] = dose: 200.0 mg/kg/injection, schedule: Q01DX009 (ip), vehicle: Klucel (hydroxypropylcellulose) (HPC)
[11] = dose: 400.0 mg/kg/injection, schedule: Q01DX009 (ip), vehicle: Klucel (hydroxypropylcellulose) (HPC)
[12] = dose: 100.0 mg/kg/injection, schedule: Q04DX003 (ip), vehicle: saline
[13] = dose: 400.0 mg/kg/injection, schedule: Q04DX003 (ip), vehicle: saline with Tween-80
[14] = dose: 25.0 mg/kg/injection, schedule: Q04DX003 (ip), vehicle: saline

Measured: T/C

CC(C)CCCC(C)C1CCC2C3CCC4=CC5(CCC4(C)C3CCC12C)SCCS5 (stereo not drawn)
inactive: dose: 50.0 mg/kg/injection, schedule: Q01DX009 (ip), vehicle: saline with Tween-80 98 % of control | [1] 101 % of control | [2] 95 % of control

Nc1nc2c(ncn2-c2cccc(-c3ccccc3)c2)c(=O)[nH]1
inactive: dose: 25.0 mg/kg/injection, schedule: Q04DX003 (ip), vehicle: saline with Tween-80 100 % of control | dose: 50.0 mg/kg/injection, schedule: Q04DX003 (ip), vehicle: saline with Tween-80 102 % of control | [3] 100 % of control | [4] 87 % of control

Oc1ccc2ccccc2c1C(c1ccccc1)N1CCOCC1 (stereo not drawn)
inactive: [5] 88 % of control | [6] 88 % of control | [7] 101 % of control

O=C(O)/C=C/C(=O)NC1CCCCC1
inactive: [1] 94 % of control | [2] 96 % of control | [8] 98 % of control

O=C(ONC(=O)[C@@H]1CCCC[C@H]1C(=O)NOC(=O)c1ccccc1)c1ccccc1
inactive: dose: 50.0 mg/kg/injection, schedule: Q01DX001 (ip), vehicle: Klucel (hydroxypropylcellulose) (HPC) 97 % of control | dose: 50.0 mg/kg/injection, schedule: Q01DX009 (ip), vehicle: Klucel (hydroxypropylcellulose) (HPC) 92 % of control | dose: 100.0 mg/kg/injection, schedule: Q01DX001 (ip), vehicle: Klucel (hydroxypropylcellulose) (HPC) 97 % of control | [9] 92 % of control | dose: 200.0 mg/kg/injection, schedule: Q01DX001 (ip), vehicle: Klucel (hydroxypropylcellulose) (HPC) 97 % of control | [10] 103 % of control | dose: 400.0 mg/kg/injection, schedule: Q01DX001 (ip), vehicle: Klucel (hydroxypropylcellulose) (HPC) 96 % of control | [11] 97 % of control

O=C(Nc1ccc(Br)cc1)Nc1ccccc1F
inactive: [9] 98 % of control | [10] 93 % of control | [11] 98 % of control

N/C(=N/N=C/c1ccc(N(CCCl)CCCl)cc1)N[N+](=O)[O-]
inactive: dose: 15.0 mg/kg/injection, schedule: Q01DX Z (ip), vehicle: methylcellulose (MC) 89 % of control | dose: 30.0 mg/kg/injection, schedule: Q01DX Z (ip), vehicle: methylcellulose (MC) 93 % of control | dose: 60.0 mg/kg/injection, schedule: Q01DX Z (ip), vehicle: methylcellulose (MC) 96 % of control | dose: 60.0 mg/kg/injection, schedule: Q01DX Z (oral), vehicle: methylcellulose (MC) 94 % of control | dose: 120.0 mg/kg/injection, schedule: Q01DX Z (ip), vehicle: methylcellulose (MC) 96 % of control | dose: 120.0 mg/kg/injection, schedule: Q01DX Z (oral), vehicle: methylcellulose (MC) 101 % of control | dose: 240.0 mg/kg/injection, schedule: Q01DX Z (ip), vehicle: methylcellulose (MC) 104 % of control | dose: 480.0 mg/kg/injection, schedule: Q01DX Z (ip), vehicle: methylcellulose (MC) 94 % of control

N#CCCO
inactive: dose: 25.0 mg/kg/injection, schedule: Q04DX002 (ip), vehicle: saline 98 % of control | dose: 50.0 mg/kg/injection, schedule: Q04DX002 (ip), vehicle: saline 101 % of control | dose: 100.0 mg/kg/injection, schedule: Q04DX002 (ip), vehicle: saline 110 % of control and 121 % of control | dose: 200.0 mg/kg/injection, schedule: Q04DX002 (ip), vehicle: saline 96 % of control | dose: 400.0 mg/kg/injection, schedule: Q04DX002 (ip), vehicle: saline 108 % of control

Cn1c[n+](C)cc1C(=O)[O-]
inactive: dose: 100.0 mg/kg/injection, schedule: Q01DX009 (ip), vehicle: saline 91 % of control | [12] 97 % of control | dose: 200.0 mg/kg/injection, schedule: Q01DX009 (ip), vehicle: saline 97 % of control | dose: 200.0 mg/kg/injection, schedule: Q04DX003 (ip), vehicle: saline 102 % of control | dose: 400.0 mg/kg/injection, schedule: Q01DX009 (ip), vehicle: saline 95 % of control | dose: 400.0 mg/kg/injection, schedule: Q04DX003 (ip), vehicle: saline 109 % of control

CC(=O)OC(c1ccccc1)C(C)C(OC(C)=O)(C(F)(F)F)C(F)(F)F (stereo not drawn)
inactive: [1] 102 % of control | [3] 102 % of control | [2] 98 % of control | [4] 94 % of control | [8] 100 % of control | [13] 93 % of control

BrC1C2CC(c3ccccc32)C1Br (stereo not drawn)
inactive: [1] 101 % of control | [3] 94 % of control | [2] 91 % of control | [4] 93 % of control | [8] 98 % of control | [13] 95 % of control

CC(=O)Nc1ccc(NC(=O)Nc2ccccc2F)cc1
inactive: [9] 98 % of control | [10] 96 % of control | [11] 102 % of control

N#CC(C#N)=NNc1ccc(S(=O)(=O)c2ccc(NN=C(C#N)C#N)cc2)cc1
inactive: [3] 103 % of control | [4] 97 % of control | [13] 97 % of control

CC1CCCC(C)C1O (stereo not drawn)
inactive: dose: 100.0 mg/kg/injection, schedule: Q01DX001 (ip), vehicle: saline 103 % of control | dose: 200.0 mg/kg/injection, schedule: Q01DX001 (ip), vehicle: saline 101 % of control | dose: 400.0 mg/kg/injection, schedule: Q01DX001 (ip), vehicle: saline 103 % of control

N#CNc1nc(-c2ccccc2)cc(-c2ccccc2O)n1
inactive: [5] 98 % of control | [6] 95 % of control | [7] 109 % of control

CC(=O)CC(=O)Nc1ccc(Cl)cc1Cl
inactive: [9] 100 % of control | dose: 100.0 mg/kg/injection, schedule: Q04DX003 (ip), vehicle: Klucel (hydroxypropylcellulose) (HPC) 98 % of control | [10] 102 % of control | dose: 200.0 mg/kg/injection, schedule: Q04DX003 (ip), vehicle: Klucel (hydroxypropylcellulose) (HPC) 91 % of control | [11] 98 % of control | dose: 400.0 mg/kg/injection, schedule: Q04DX003 (ip), vehicle: Klucel (hydroxypropylcellulose) (HPC) 93 % of control

BrC1(Br)C2CC3C(CC21)C3(Br)Br (stereo not drawn)
inactive: dose: 100.0 mg/kg/injection, schedule: Q01DX001 (ip), vehicle: saline sonified 98 % of control | dose: 200.0 mg/kg/injection, schedule: Q01DX001 (ip), vehicle: saline sonified 96 % of control | dose: 400.0 mg/kg/injection, schedule: Q01DX001 (ip), vehicle: saline sonified 98 % of control

CCOCC(C#N)C#N
inactive: dose: 6.25 mg/kg/injection, schedule: Q01DX009 (ip), vehicle: saline 94 % of control | dose: 6.25 mg/kg/injection, schedule: Q04DX003 (ip), vehicle: saline 96 % of control | dose: 12.5 mg/kg/injection, schedule: Q01DX009 (ip), vehicle: saline 92 % of control | dose: 12.5 mg/kg/injection, schedule: Q04DX003 (ip), vehicle: saline 106 % of control | [14] 99 % of control

OC1CCCC2CCC[N-]C12.OC1CCCC2CCC[N-]C12.[O]=[V][OH] (stereo not drawn)
inactive: dose: 24.0 mg/kg/injection, schedule: Q01DX015 (ip), vehicle: carboxymethylcellulose (CMC) 105 % of control | [14] 93 % of control | dose: 36.0 mg/kg/injection, schedule: Q01DX015 (ip), vehicle: carboxymethylcellulose (CMC) 105 % of control | dose: 50.0 mg/kg/injection, schedule: Q01DX001 (ip), vehicle: saline 100 % of control | dose: 50.0 mg/kg/injection, schedule: Q04DX003 (ip), vehicle: saline 93 % of control | dose: 54.0 mg/kg/injection, schedule: Q01DX015 (ip), vehicle: carboxymethylcellulose (CMC) 102 % of control | [12] 95 % of control
